Reference: US10172812B2, “Compounds and methods for treating muscular dystrophy and other disorders” (The Charlotte Mecklenburg Hospital Authority, priority 2017, dated 2019)
“Also recorded” adds a separate entry of the source.

What was measured:
Assay type in all cases: in vivo, mouse
[1] = tested on: FKRP-P448L mutant dystrophic mice; test: Muscle histology (H&E staining) in FKRP P448L mutant mice; details: for fibrotic streaks in cardiac muscle / histology (H&E) / inflammation, degeneration and fibrotic tissue in skeletal muscle: 1 year of treatment, 5 day a week; for inflammation, degeneration and fibrotic tissue in muscle / muscle pathology (H&E): 6 month treatment, 5 days a week, 10 mg/kg, vs saline
Experimental: FIG. 1. […] C57 normal mouse muscles were used as controls. Saline, mice treated with saline as negative control. […] Hematoxylin and eosin (H&E) staining was used.
FIG. 4. […] H&E staining was used. The therapeutic effect is best seen with 10 mg/kg tamoxifen treatment. […] C57 normal mouse muscles were used as controls. P448-Saline, mice treated with saline as negative control.
(§1) This invention applies tamoxifen and raloxifene for clinical use in FKRP mutant dystrophic mouse models for the treatment of dystroglycanopathies, specifically those caused by mutations in the FKRP gene. Mutations in the FKRP gene cause muscular dystrophy with the lack of functional glycosylation of alpha-dystroglycan (α-DG) as the characteristic biochemical marker in the diseased tissues. Mouse models with the FKRP mutations present in patients show the same biochemical feature as patients' tissues, most prominently in muscles (Chan Y M, Hum Mol Genet 2010, 19(20): 3995-4006; Blaeser A, Hum Genet 2013, 132(8): 923-934). […] Histologically, the diseased muscles undergo continuous degeneration as indicated by the presence of degenerating muscle fibers, variation in fiber size, presence of centrally nucleated fibers (a result of regeneration which is the consequence of muscle damage), inflammatory cells and an increase in non-muscle fiber connective tissues (FIG. 1). […] The best results were obtained with 5-10 mg/kg tamoxifen and 50 mg/kg raloxifene, which would be equivalent to human equivalent dose (HED) of about 0.5 mg/kg for tamoxifen and 5 mg/kg for raloxifene. […] The improvement in muscle function and pathology is even greater after 1 year treatment.

[2] = tested on: FKRP-P448L mutant dystrophic mice; test: Overall therapeutic effect (muscle pathology and function) on feeding FKRP-P448L mutant mice; details: for dose giving the best results / muscle pathology and function: feeding 5 days a week; for dose relation of the therapeutic effects: tamoxifen 2, 5, 10, 50 mg/kg/day, raloxifene 10, 50, 100 mg/kg/day
Description: as §1

[3] = tested on: glycosylated alpha-dystroglycan (α-DG); test: Immunohistochemistry with monoclonal antibody IIH6 on muscles of treated FKRP mutant mice
Description: FIG. 2. […] C57 normal mouse muscles were used as controls. Saline, mice treated with saline as negative control. The positive staining is seen surrounding the fiber membrane and a few revertant fibers are observed in the saline treated controls.
as §1

[4] = tested on: FKRP-P448L mutant dystrophic mice; test: Grip force measurement in FKRP P448L mutant mice
Description: FIG. 3. […] C57 normal mice muscles as controls. Saline, mice treated with saline as negative control.
FIG. 5. […] Saline treated control, column 1; C57 normal control, column 8).
(§2) This invention applies tamoxifen and raloxifene for clinical use in FKRP mutant dystrophic mouse models for the treatment of dystroglycanopathies, specifically those caused by mutations in the FKRP gene. Mutations in the FKRP gene cause muscular dystrophy with the lack of functional glycosylation of alpha-dystroglycan (α-DG) as the characteristic biochemical marker in the diseased tissues. Mouse models with the FKRP mutations present in patients show the same biochemical feature as patients' tissues, most prominently in muscles (Chan Y M, Hum Mol Genet 2010, 19(20): 3995-4006; Blaeser A, Hum Genet 2013, 132(8): 923-934). […] Histologically, the diseased muscles undergo continuous degeneration as indicated by the presence of degenerating muscle fibers, variation in fiber size, presence of centrally nucleated fibers (a result of regeneration which is the consequence of muscle damage), inflammatory cells and an increase in non-muscle fiber connective tissues (FIG. 1). […] The best results were obtained with 5-10 mg/kg tamoxifen and 50 mg/kg raloxifene, which would be equivalent to human equivalent dose (HED) of about 0.5 mg/kg for tamoxifen and 5 mg/kg for raloxifene.

[5] = tested on: FKRP-P448L mutant dystrophic mice; test: Treadmill exercise in FKRP P448L mutant mice; details: 1 year treatment, vs saline-treated cohort
Description: FIG. 6. […] Saline treated control, column 1; C57 normal control, column 8).
as §2

[6] = 6 months of treatment, 5 days a week, 10 mg/kg; vs saline
[7] = 2 mg/kg/day, 1 year treatment; vs saline-treated cohort
[8] = 50 mg/kg/day, 1 year treatment; vs saline-treated cohort

## CC/C(=C(\c1ccccc1)c1ccc(OCCN(C)C)cc1)c1ccccc1 [tamoxifen]
[1]; 10 mg/kg/day
  fibrotic streaks in cardiac muscle: Reduced fibrotic streaks
  histology (H&E): Improvement in histology
  inflammation, degeneration and fibrotic tissue in skeletal muscle: Reduction
[1]
  inflammation, degeneration and fibrotic tissue in muscle: Reduction
  muscle pathology (H&E): significantly improve muscle pathology
[2]
  dose giving the best results: 5 to 10 mg/kg
  muscle pathology and function: significantly improved muscle pathology and function
  dose relation of the therapeutic effects: dose-related with increasing efficacy
[3]; 6 months of treatment, 5 days a week, 10 mg/kg, vs saline
  levels of glycosylated alpha-dystroglycan (α-DG) detected with IIH6: enhance the levels of glycosylated alpha-dystroglycan; also recorded: enhanced expression of alpha-DG
[3]; [6]
  number of IIH6 positive fibers: clearly increased
[4]; [7]
  grip force measurement (other than hindlimb): Significant improvement
  grip force measurement, hindlimb: did not reach significance
[4]; 10 mg/kg/day, 1 year treatment; vs saline-treated cohort
  grip force measurement: Significant improvement
[4]; [8]
  grip force measurement: Significant improvement
[4]; 6 months of treatment, 5 days a week, 10 mg/kg; vs saline; 10 mg/kg
  muscle function by grip force measurement: improved muscle function
[5]; 2 mg/kg/day
  treadmill running distance: Significant improvement
  treadmill running time: did not reach significance
[5]; 10 mg/kg/day
  treadmill running distance: Significant improvement
  treadmill running time: Significant improvement
[5]; 50 mg/kg/day
  treadmill running distance: Significant improvement
  treadmill running time: Significant improvement

## O=C(c1ccc(OCCN2CCCCC2)cc1)c1c(-c2ccc(O)cc2)sc2cc(O)ccc12 [raloxifene]
[1]; 50 mg/kg/day
  fibrotic streaks in cardiac muscle: Reduced fibrotic streaks
  histology (H&E): Improvement in histology
  inflammation, degeneration and fibrotic tissue in skeletal muscle: Reduction
[1]
  inflammation, degeneration and fibrotic tissue in muscle: Reduction
  muscle pathology (H&E): significantly improve muscle pathology
[2]
  dose giving the best results: 50 mg/kg
  muscle pathology and function: significantly improved muscle pathology and function
  dose relation of the therapeutic effects: dose-related with increasing efficacy
[3]; [6]
  levels of glycosylated alpha-dystroglycan (α-DG) detected with IIH6: enhance the levels of glycosylated alpha-dystroglycan
  number of IIH6 positive fibers: clearly increased
[4]; [8]
  grip force measurement: Significant improvement
[4]; 100 mg/kg/day, 1 year treatment; vs saline-treated cohort
  grip force measurement: Significant improvement
[4]; [6]
  muscle function by grip force measurement: improve muscle function
[5]; 50 mg/kg/day
  treadmill running distance: Significant improvement
  treadmill running time: Significant improvement
[5]; 100 mg/kg/day
  treadmill running distance: Significant improvement
  treadmill running time: Significant improvement
